Experimental data: PubChem BioAssay (NCI)
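GI50 marks 50% less growth. TGI is the concentration that stops growth completely.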

Experiments:
Experiment in all cases: NCI anticancer screen, dose series, 384-well format
SF-295 CNS = test system: SF-295 CNS
EKVX NSCLC = test system: EKVX NSCLC
SK-OV-3 ovarian = test system: SK-OV-3 ovarian
NCI/ADR-RES ovarian = test system: NCI/ADR-RES ovarian
MDA-MB-231 breast = test system: MDA-MB-231 breast
SF-539 CNS = test system: SF-539 CNS
UO-31 renal = test system: UO-31 renal
NCI-H226 lung = test system: NCI-H226 lung
SK-MEL-5 melanoma = test system: SK-MEL-5 melanoma
HS 578T breast = test system: HS 578T breast
NCI-H322M lung = test system: NCI-H322M lung
OVCAR-5 ovarian = test system: OVCAR-5 ovarian
COLO 205 colon = test system: COLO 205 colon
RXF 393 renal = test system: RXF 393 renal
RPMI-8226 leukemia = test system: RPMI-8226 leukemia
MCF7 breast = test system: MCF7 breast
CCRF-CEM leukemia = test system: CCRF-CEM leukemia
KM12 colon = test system: KM12 colon
SNB-19 CNS = test system: SNB-19 CNS
HCC-2998 colon = test system: HCC-2998 colon
SR leukemia = test system: SR leukemia
HT29 colon = test system: HT29 colon
M14 melanoma = test system: M14 melanoma
MALME-3M melanoma = test system: MALME-3M melanoma
BT-549 breast = test system: BT-549 breast
MDA-MB-435 melanoma = test system: MDA-MB-435 melanoma
TK-10 renal = test system: TK-10 renal
A549 NSCLC = test system: A549 NSCLC
NCI-H23 lung = test system: NCI-H23 lung

CCOCCOC[C@H]1CCCN(c2ccnc3sc(C(N)=O)c(N)c23)C1
TGI (SF-295 CNS): > 100 µM
GI50 (EKVX NSCLC): 35.1 µM
TGI (EKVX NSCLC): > 100 µM
GI50 (SK-OV-3 ovarian): 17.6 µM
TGI (SK-OV-3 ovarian): > 100 µM
GI50 (NCI/ADR-RES ovarian): 3.53 µM
TGI (NCI/ADR-RES ovarian): 27.6 µM
GI50 (MDA-MB-231 breast): 82.3 µM
TGI (MDA-MB-231 breast): > 100 µM
GI50 (SF-539 CNS): > 100 µM
TGI (SF-539 CNS): > 100 µM
GI50 (UO-31 renal): > 100 µM
TGI (UO-31 renal): > 100 µM
GI50 (NCI-H226 lung): 90.9 µM
TGI (NCI-H226 lung): > 100 µM
GI50 (SK-MEL-5 melanoma): 2.56 µM
TGI (SK-MEL-5 melanoma): 18.1 µM
GI50 (HS 578T breast): > 100 µM
TGI (HS 578T breast): > 100 µM
GI50 (NCI-H322M lung): 13.4 µM
TGI (NCI-H322M lung): > 100 µM
GI50 (OVCAR-5 ovarian): > 100 µM
TGI (OVCAR-5 ovarian): > 100 µM
GI50 (COLO 205 colon): 61.6 µM
TGI (COLO 205 colon): > 100 µM
GI50 (RXF 393 renal): 12.9 µM
TGI (RXF 393 renal): > 100 µM
GI50 (RPMI-8226 leukemia): 0.499 µM
TGI (RPMI-8226 leukemia): 14.4 µM
GI50 (MCF7 breast): 23 µM
TGI (MCF7 breast): > 100 µM
GI50 (CCRF-CEM leukemia): 1.43 µM
TGI (CCRF-CEM leukemia): 11.2 µM
GI50 (KM12 colon): 46.7 µM
TGI (KM12 colon): > 100 µM
GI50 (SNB-19 CNS): > 100 µM
TGI (SNB-19 CNS): > 100 µM
GI50 (HCC-2998 colon): > 100 µM
TGI (HCC-2998 colon): > 100 µM
GI50 (SR leukemia): 1.07 µM
TGI (SR leukemia): 3.5 µM
GI50 (HT29 colon): > 100 µM
TGI (HT29 colon): > 100 µM
GI50 (M14 melanoma): > 100 µM
TGI (M14 melanoma): > 100 µM
GI50 (MALME-3M melanoma): > 100 µM
TGI (MALME-3M melanoma): > 100 µM
GI50 (BT-549 breast): 79.1 µM
TGI (BT-549 breast): > 100 µM
GI50 (MDA-MB-435 melanoma): > 100 µM
TGI (MDA-MB-435 melanoma): > 100 µM
GI50 (TK-10 renal): > 100 µM
TGI (TK-10 renal): > 100 µM
GI50 (A549 NSCLC): > 100 µM
TGI (A549 NSCLC): > 100 µM
GI50 (NCI-H23 lung): 7.19 µM
TGI (NCI-H23 lung): > 100 µM
